The test system of one experiment is A549. The experiment can be described thus: cells. As to conditions: Homo sapiens, A549, 72 h.
A further experiment concerns HT-29. The experiment can be described thus: cells. The settings on record: Homo sapiens, HT-29, 72 h.
Experiment [1] is described as follows: Cytotoxicity against human U87MG cells assessed as inhibition of cell growth after 72 hrs by MTT assay. Format: functional, cell-based, U-87MG ATCC. As to conditions: U-87 MG.
Experiment [2] in a line: cells. The settings on record: Homo sapiens, MKN-45, 72 h.
Experiment [3] is described as follows: cells. The settings on record: Homo sapiens, NCI-H460, 72 h.

As to `COc1cc2c(Oc3ccc(NC(=O)c4nn(-c5ccc(Cl)cc5)c(=O)cc4C)cc3F)ccnc2cc1OCCCN1CCN(C)CC1`, the IC50 in the experiment on A549 was found to be 0.27 µM; with HT-29 it was 0.32 µM; in experiment [1], 1.56 µM; in the experiment “cells [2]”, 0.04 µM; in “cells [3]” it was 0.44 µM.

Regarding `COc1cc2c(Oc3ccc(NC(=O)c4nn(-c5ccccc5OC(F)(F)F)c(=O)cc4C)cc3F)ccnc2cc1OCCCN1CCC(C)CC1`, the IC50 in the experiment on A549 was 0.09 µM; in the experiment with HT-29 it was 0.25 µM; in experiment [1], 0.8 µM; in “cells [2]” it was 0.07 µM; in the experiment “cells [3]”, 0.29 µM.

As for `COc1cc2c(Oc3ccc(NC(=O)c4nn(-c5ccccc5C)c(=O)cc4C)cc3F)ccnc2cc1OCCCN1CCN(C)CC1`, the IC50 came out at 2.83 µM in the experiment with A549; 3.79 µM in the experiment with HT-29; 3.72 µM in experiment [1]; 1.63 µM in “cells [2]”; 3.42 µM in “cells [3]”.

Turning to `COc1cc2c(Oc3ccc(NC(=O)c4nn(-c5ccccc5OC(F)(F)F)c(=O)cc4C)cc3F)ccnc2cc1OCCCN1CCCCC1`, the IC50 in the experiment with A549 was 0.12 µM; in the experiment on HT-29, 0.19 µM; in experiment [1] it was 1.3 µM; in “cells [2]”, 0.04 µM; in “cells [3]”, 0.23 µM.

With `COc1cc2c(Oc3ccc(NC(=O)c4nn(-c5ccccc5C(F)(F)F)c(=O)cc4C)cc3F)ccnc2cc1OCCCN1CCCCC1`, the IC50 in the experiment on A549 amounted to 0.14 µM; in the experiment on HT-29, 0.17 µM; in experiment [1], 1.15 µM; in the experiment “cells [2]” it was 0.09 µM; in “cells [3]” it was 0.21 µM.

On to `COc1cc2c(Oc3ccc(NC(=O)c4nn(-c5cccc(F)c5)c(=O)cc4C)cc3F)ccnc2cc1OCCCN1CCCC1`, for which the IC50 in the experiment on A549 came to 0.17 µM; with HT-29 it was 0.25 µM; in experiment [1], 1.7 µM; in the experiment “cells [2]”, 0.12 µM; in “cells [3]”, 0.28 µM.

Take `COc1cc2c(Oc3ccc(NC(=O)c4nn(-c5ccccc5OC(F)(F)F)c(=O)cc4C)cc3F)ccnc2cc1OCCCN1CCOCC1`: the IC50 was 0.12 µM in the experiment on A549; 0.17 µM with HT-29; 1.3 µM in experiment [1]; 0.09 µM in the experiment “cells [2]”; 0.2 µM in “cells [3]”.

In the case of `COc1cc2c(Oc3ccc(NC(=O)c4nn(-c5cccc(F)c5)c(=O)cc4C)cc3F)ccnc2cc1OCCCN1CCN(C)CC1`, the IC50 worked out at 0.15 µM in the experiment with A549; 0.25 µM in the experiment with HT-29; 1.59 µM in experiment [1]; 0.12 µM in the experiment “cells [2]”; 0.26 µM in “cells [3]”.

With `COc1cc2c(Oc3ccc(NC(=O)c4nn(-c5ccccc5C)c(=O)cc4C)cc3F)ccnc2cc1OCCCN1CCC(C)CC1`, the IC50 in the experiment on A549 was found to be 1.46 µM; with HT-29 it was 2.81 µM; in experiment [1], 2.24 µM; in “cells [2]”, 1.29 µM; in the experiment “cells [3]”, 2.26 µM.

On to `COc1cc2c(Oc3ccc(NC(=O)c4nn(-c5ccccc5C)c(=O)cc4C)cc3F)ccnc2cc1OCCCN1CCCCC1`, for which the IC50 turned out to be 1.92 µM in the experiment with A549; 2.81 µM in the experiment on HT-29; 2.5 µM in experiment [1]; 1.31 µM in the experiment “cells [2]”; 3.22 µM in the experiment “cells [3]”.

For the molecule `COc1cc2c(Oc3ccc(NC(=O)c4nn(-c5ccc(Cl)cc5)c(=O)cc4C)cc3F)ccnc2cc1OCCCN1CCCCC1`, the IC50 was determined as 0.32 µM with A549; 0.36 µM in the experiment on HT-29; 1.4 µM in experiment [1]; 0.23 µM in the experiment “cells [2]”; 0.46 µM in “cells [3]”.

As for `COc1cc2c(Oc3ccc(NC(=O)c4nn(-c5ccccc5C(F)(F)F)c(=O)cc4C)cc3F)ccnc2cc1OCCCN1CCCC1`, the IC50 with A549 was determined as 0.13 µM; in the experiment with HT-29 it was 0.14 µM; in experiment [1], 1.01 µM; in “cells [2]”, 0.1 µM; in “cells [3]”, 0.21 µM.

Take `COc1cc2c(Oc3ccc(NC(=O)c4nn(-c5ccccc5C(F)(F)F)c(=O)cc4C)cc3F)ccnc2cc1OCCCN1CCN(C)CC1`: the IC50 came out at 0.17 µM in the experiment with A549; 0.17 µM with HT-29; 1.17 µM in experiment [1]; 0.04 µM in the experiment “cells [2]”; 0.24 µM in the experiment “cells [3]”.

As to `COc1cc2c(Oc3ccc(NC(=O)c4nn(-c5ccccc5)c(=O)cc4C)cc3F)ccnc2cc1OCCCN1CCCC1`, the IC50 in the experiment with A549 is 0.37 µM; in the experiment on HT-29, 0.22 µM; in experiment [1], 1.1 µM; in “cells [2]” it was 0.12 µM; in “cells [3]” it was 0.46 µM.

As for `COc1cc2c(Oc3ccc(NC(=O)c4nn(-c5ccc(F)c(F)c5)c(=O)cc4C)cc3F)ccnc2cc1OCCCN1CCOCC1`, the IC50 is 0.32 µM with A549, 0.16 µM in the experiment with HT-29, 0.09 µM in “cells [2]” and 0.39 µM in the experiment “cells [3]”.

On to `COc1cc2c(Oc3ccc(NC(=O)c4nn(-c5cccc(F)c5)c(=O)cc4C)cc3F)ccnc2cc1OCCCN1CCC(C)CC1`, for which the IC50 with A549 stood at 0.25 µM; with HT-29, 0.3 µM; in experiment [1], 1.8 µM; in “cells [2]”, 0.14 µM; in the experiment “cells [3]”, 0.25 µM.

Consider `COc1cc2c(Oc3ccc(NC(=O)c4nn(-c5ccccc5)c(=O)cc4C)cc3F)ccnc2cc1OCCCN1CCCCC1`, for which the IC50 with A549 stood at 0.15 µM; with HT-29, 0.16 µM; in experiment [1], 1.37 µM; in the experiment “cells [2]”, 0.16 µM; in “cells [3]”, 0.28 µM.

Turning to `COc1cc2c(Oc3ccc(NC(=O)c4nn(-c5ccccc5C)c(=O)cc4C)cc3F)ccnc2cc1OCCCN1CCOCC1`, the IC50 in the experiment with A549 was 0.53 µM; with HT-29, 1.01 µM; in experiment [1], 2 µM; in “cells [2]” it was 0.27 µM; in the experiment “cells [3]” it was 1.38 µM.

Turning to `COc1cc2c(Oc3ccc(NC(=O)c4nn(-c5ccc(Cl)cc5)c(=O)cc4C)cc3F)ccnc2cc1OCCCN1CCC(C)CC1`, the IC50 in the experiment on A549 is 0.21 µM; in the experiment with HT-29 it was 0.18 µM; in experiment [1] it was 1.35 µM; in the experiment “cells [2]”, 0.15 µM; in the experiment “cells [3]” it was 0.37 µM.

For the molecule `COc1cc2c(Oc3ccc(NC(=O)c4nn(-c5ccc(F)c(F)c5)c(=O)cc4C)cc3F)ccnc2cc1OCCCN1CCCC1`, the IC50 with A549 is 0.22 µM; in the experiment on HT-29, 0.15 µM; in experiment [1], 1.4 µM; in the experiment “cells [2]”, 0.08 µM; in the experiment “cells [3]”, 0.17 µM.

For the molecule `COc1ccc(-n2nc(C(=O)Nc3ccc(Oc4ccnc5cc(OCCCN6CCC(C)CC6)c(OC)cc45)c(F)c3)c(C)cc2=O)cc1`, the IC50 with A549 came to 1.1 µM; in the experiment on HT-29, 5.45 µM; in experiment [1] it was 2.84 µM; in the experiment “cells [2]” it was 0.4 µM; in “cells [3]” it was 4.65 µM.

As for `COc1ccc(-n2nc(C(=O)Nc3ccc(Oc4ccnc5cc(OCCCN6CCCC6)c(OC)cc45)c(F)c3)c(C)cc2=O)cc1`, the IC50 was 2.77 µM in the experiment with A549; 3.3 µM in the experiment on HT-29; 2.96 µM in experiment [1]; 1.29 µM in “cells [2]”; 3.61 µM in the experiment “cells [3]”.

Consider `COc1ccc(-n2nc(C(=O)Nc3ccc(Oc4ccnc5cc(OCCCN6CCCCC6)c(OC)cc45)c(F)c3)c(C)cc2=O)cc1`, for which the IC50 in the experiment with A549 is 1.5 µM; in the experiment with HT-29 it was 3.2 µM; in experiment [1], 1.8 µM; in the experiment “cells [2]” it was 0.33 µM; in “cells [3]”, 3.73 µM.

`COc1ccc(-n2nc(C(=O)Nc3ccc(Oc4ccnc5cc(OCCCN6CCN(C)CC6)c(OC)cc45)c(F)c3)c(C)cc2=O)cc1`: the IC50 in the experiment on A549 amounted to 2.2 µM; in the experiment with HT-29 it was 3.52 µM; in the experiment “cells [2]” it was 1.23 µM; in the experiment “cells [3]”, 3.66 µM.

As for `COc1cc2c(Oc3ccc(NC(=O)c4nn(-c5ccccc5OC(F)(F)F)c(=O)cc4C)cc3F)ccnc2cc1OCCCN1CCN(C)CC1`, the half-maximal inhibitory concentration (IC50) in the experiment on A549 worked out at 0.13 µM; with HT-29 it was 0.18 µM; in experiment [1] it was 1.44 µM; in the experiment “cells [2]”, 0.1 µM; in the experiment “cells [3]” it was 0.26 µM.

With `COc1cc2c(Oc3ccc(NC(=O)c4nn(-c5ccc(Cl)cc5Cl)c(=O)cc4C)cc3F)ccnc2cc1OCCCN1CCC(C)CC1`, the IC50 in the experiment on A549 is 0.2 µM; in the experiment on HT-29, 0.17 µM; in “cells [2]”, 0.12 µM; in the experiment “cells [3]”, 0.25 µM.

With `COc1cc2c(Oc3ccc(NC(=O)c4nn(-c5ccccc5)c(=O)cc4C)cc3F)ccnc2cc1OCCCN1CCOCC1`, the IC50 is 0.72 µM in the experiment with A549; 0.35 µM in the experiment with HT-29; 1.6 µM in experiment [1]; 0.11 µM in the experiment “cells [2]”; 0.45 µM in “cells [3]”.

Consider `COc1cc2c(Oc3ccc(NC(=O)c4nn(-c5ccccc5OC(F)(F)F)c(=O)cc4C)cc3F)ccnc2cc1OCCCN1CCCC1`, for which the concentration for half-maximal inhibition (IC50) with A549 stood at 0.14 µM; with HT-29, 0.18 µM; in experiment [1], 1.28 µM; in “cells [2]”, 0.06 µM; in the experiment “cells [3]”, 0.21 µM.

On to `COc1cc2c(Oc3ccc(NC(=O)c4nn(-c5cccc(F)c5)c(=O)cc4C)cc3F)ccnc2cc1OCCCN1CCOCC1`, for which the IC50 turned out to be 0.55 µM in the experiment with A549; 0.27 µM in the experiment on HT-29; 1.98 µM in experiment [1]; 0.11 µM in the experiment “cells [2]”; 0.29 µM in the experiment “cells [3]”.

With `COc1cc2c(Oc3ccc(NC(=O)c4nn(-c5ccc(F)c(F)c5)c(=O)cc4C)cc3F)ccnc2cc1OCCCN1CCN(C)CC1`, the IC50 worked out at 0.13 µM in the experiment on A549, 0.17 µM in the experiment on HT-29, 0.12 µM in the experiment “cells [2]” and 0.19 µM in the experiment “cells [3]”.

Consider `COc1cc2c(Oc3ccc(NC(=O)c4nn(-c5ccc(Cl)cc5Cl)c(=O)cc4C)cc3F)ccnc2cc1OCCCN1CCCCC1`, for which the IC50 with A549 amounted to 0.22 µM; in the experiment with HT-29, 0.29 µM; in experiment [1], 1.8 µM; in “cells [2]” it was 0.08 µM; in “cells [3]” it was 0.39 µM.

Consider `COc1cc2c(Oc3ccc(NC(=O)c4nn(-c5ccccc5C(F)(F)F)c(=O)cc4C)cc3F)ccnc2cc1OCCCN1CCC(C)CC1`, for which the IC50 came to 0.16 µM in the experiment with A549; 0.18 µM in the experiment on HT-29; 1.12 µM in experiment [1]; 0.06 µM in “cells [2]”; 0.2 µM in the experiment “cells [3]”.

As to `COc1ccc(-n2nc(C(=O)Nc3ccc(Oc4ccnc5cc(OCCCN6CCOCC6)c(OC)cc45)c(F)c3)c(C)cc2=O)cc1`, the IC50 in the experiment on A549 turned out to be 1.5 µM; with HT-29, 1.23 µM; in the experiment “cells [2]”, 0.26 µM; in the experiment “cells [3]”, 1.77 µM.

Broadly, the IC50 is the concentration at which inhibition is half-maximal.

Source of the values: ChEMBL document CHEMBL3286137, “Design, synthesis and structure-activity relationships of novel 4-phenoxyquinoline derivatives containing pyridazinone moiety as potential antitumor agents” (Eur J Med Chem, 2014).
